Assay results: patent publication US20210267944A1 (BioXcel Therapeutics, Inc., priority 2018, published 2021)
Values joined by “and” are separate entries in the source; they are usually repeats but may differ in a detail not shown here. Equal values may be shown once. Where a name gives a salt, the structure may show the parent alone. Read-outs that look alike come from different tables or passages of the source.

Experiments:
clinical = details: human, plasma, iv, Plasma concentrations, individual opioid withdrawal patients, IV infusion
[1] = SDAT study
[2] = for Plasma concentrations: individual opioid withdrawal patients, IV infusion
[3] = Day 2 (printed Day −2), 00:00 Hr

Compound `Cc1cccc([C@H](C)c2cnc[nH]2)c1C` [dexmedetomidine hydrochloride] has a concentration at […] (clinical; Day 1 (printed Day −1), 01:15 Hr) of 0.0753 ng/mL, a concentration at […] (clinical; Day 1 (printed Day −1), 01:30 Hr) of 0.112 ng/mL and a concentration at 0 h (clinical; [3]) of 0.00821 ng/mL. For the same compound, the concentration at […] (clinical; Day 2 (printed Day −2), 01:15 Hr) was 0.14 ng/mL, the concentration at […] (clinical; Day 2 (printed Day −2), 01:30 Hr) was 0.177 ng/mL and the concentration at […] (clinical; Day 2 (printed Day −2), 01:45 Hr) was 0.288 ng/mL. The concentration at 2 h (clinical; Day 2 (printed Day −2), 02:00 Hr) was 0.404 ng/mL, the adverse events [1] was “No adverse event was reported” and the Plasma concentrations ([2]; Day 1 (printed Day −1), 00:00 Hr) was “BLQ”. For the same compound, the Plasma concentrations [2, 3] was “BLQ”, the Plasma concentrations ([2]; Day 2 (printed Day −2), 01:00 Hr) was 54.81 picograms/ml and 97.92 picograms/ml and 119.71 picograms/ml and the “Plasma concentration achieved at efficacious doses” value ([2]; Opioid withdrawal Study) was 0.011 to 0.406 ng/mL.
